Values quoted from earlier work as cited in patent US6001882A (priority 1997, dated 1999).

Assays:
[1] = cited from earlier work
psoriasis = details: systemic, with long wavelength ultraviolet light; cited from earlier work

Compound | conversion on exposure to visible light [1] | amelioration of psoriasis (psoriasis)
Cc1cc(O)c2c(=O)c3c(O)cc(O)c4c5c(O)cc(O)c6c(=O)c7c(O)cc(C)cc7c(c65)c(c2c1)c34 [protohypericin] | converted to hypericin upon exposure to visible light | 
C=Cc1c2[n-]c(c1C)/C=c1\[n-]/c(c(C)c1C=C)=C\c1[n-]c(c(CCC(=O)O)c1C)/C=c1\[n-]c(c(C)c1CCC(=O)O)=C2.[Sn+4] [tin-protoporphyrin] |  | effects amelioration of psoriasis in psoriatic patients
